Laboratory results: article PMC4969146 (Bioorganic & medicinal chemistry letters, 2016)
≈ marks a conversion by molar mass, not a printed value. Read-outs that look alike come from different tables or passages of the source.

System: Escherichia coli K12
Type: cell-based
[1] = K12, read-out: Minimum Inhibitory Concentration E. coli K12, M9 media
[2] = K12, read-out: Minimum Inhibitory Concentration E. coli K12, M9 plus 5 µg/mL PABA
[3] = K12, read-out: Minimum Inhibitory Concentration E. coli K12, M9 plus 20 µg/mL Methionine

SMILES | MIC [1] [µM] | MIC [2] [µM] | MIC [3] [µM]
Nc1ccc(S(N)(=O)=O)cc1 [parent sulfonamide of 22, sulfanilamide] | 22 (≈ 3.79 µg/mL) | > 934 | 58
COc1cc(NS(=O)(=O)c2ccc(N)cc2)nc(OC)n1 [parent sulfonamide of 19, sulfadimethoxine] | 1.6 (≈ 0.497 µg/mL) | 537 | 3.4
Nc1ccc(S(=O)(=O)c2ccc(N)cc2)cc1 [parent sulfonamide of 21, 4-[(4-aminobenzene)sulfonyl]aniline] | 25 (≈ 6.21 µg/mL) | > 934 | 50
Cc1cc(NS(=O)(=O)c2ccc(N)cc2)no1 [parent sulfonamide of 15, sulfamethoxazole] | 0.8 (≈ 0.203 µg/mL) | 263 | 1.5
